The text below walks through data of ChEMBL document CHEMBL1150977, “A quantitative analysis of kinase inhibitor selectivity” (Nat Biotechnol, 2008).

One assay has as its target Insulin receptor (Homo sapiens, UniProt P06213).
The target in assay [1] is Dual specificity protein kinase CLK3 (Homo sapiens, UniProt P49761).
The target of assay [2] is Vascular endothelial growth factor receptor 3 (Homo sapiens, UniProt P35916).
For assay [3], the target named is T1, Dual specificity mitogen-activated protein kinase kinase 3 (Homo sapiens, UniProt P46734).
T1 sequence (P46734 whole entry): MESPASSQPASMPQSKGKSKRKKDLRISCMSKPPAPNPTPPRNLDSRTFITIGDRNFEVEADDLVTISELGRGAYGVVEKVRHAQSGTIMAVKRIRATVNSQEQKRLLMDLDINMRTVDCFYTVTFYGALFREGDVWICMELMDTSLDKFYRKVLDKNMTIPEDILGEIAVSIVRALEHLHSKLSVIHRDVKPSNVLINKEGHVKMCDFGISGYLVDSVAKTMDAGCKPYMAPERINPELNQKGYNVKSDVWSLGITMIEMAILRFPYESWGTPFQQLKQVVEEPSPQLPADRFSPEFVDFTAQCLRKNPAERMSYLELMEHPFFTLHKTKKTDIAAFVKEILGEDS

Assay [4] deals with Serine/threonine-protein kinase MRCK alpha (Homo sapiens, UniProt Q5VT25).
The target of assay [5] is Serine/threonine-protein kinase 38-like (Homo sapiens, UniProt Q9Y2H1).
The target of assay [6] is T2, Serine/threonine-protein kinase Nek9 (Homo sapiens, UniProt Q8TD19).
T2 sequence (Q8TD19 whole entry): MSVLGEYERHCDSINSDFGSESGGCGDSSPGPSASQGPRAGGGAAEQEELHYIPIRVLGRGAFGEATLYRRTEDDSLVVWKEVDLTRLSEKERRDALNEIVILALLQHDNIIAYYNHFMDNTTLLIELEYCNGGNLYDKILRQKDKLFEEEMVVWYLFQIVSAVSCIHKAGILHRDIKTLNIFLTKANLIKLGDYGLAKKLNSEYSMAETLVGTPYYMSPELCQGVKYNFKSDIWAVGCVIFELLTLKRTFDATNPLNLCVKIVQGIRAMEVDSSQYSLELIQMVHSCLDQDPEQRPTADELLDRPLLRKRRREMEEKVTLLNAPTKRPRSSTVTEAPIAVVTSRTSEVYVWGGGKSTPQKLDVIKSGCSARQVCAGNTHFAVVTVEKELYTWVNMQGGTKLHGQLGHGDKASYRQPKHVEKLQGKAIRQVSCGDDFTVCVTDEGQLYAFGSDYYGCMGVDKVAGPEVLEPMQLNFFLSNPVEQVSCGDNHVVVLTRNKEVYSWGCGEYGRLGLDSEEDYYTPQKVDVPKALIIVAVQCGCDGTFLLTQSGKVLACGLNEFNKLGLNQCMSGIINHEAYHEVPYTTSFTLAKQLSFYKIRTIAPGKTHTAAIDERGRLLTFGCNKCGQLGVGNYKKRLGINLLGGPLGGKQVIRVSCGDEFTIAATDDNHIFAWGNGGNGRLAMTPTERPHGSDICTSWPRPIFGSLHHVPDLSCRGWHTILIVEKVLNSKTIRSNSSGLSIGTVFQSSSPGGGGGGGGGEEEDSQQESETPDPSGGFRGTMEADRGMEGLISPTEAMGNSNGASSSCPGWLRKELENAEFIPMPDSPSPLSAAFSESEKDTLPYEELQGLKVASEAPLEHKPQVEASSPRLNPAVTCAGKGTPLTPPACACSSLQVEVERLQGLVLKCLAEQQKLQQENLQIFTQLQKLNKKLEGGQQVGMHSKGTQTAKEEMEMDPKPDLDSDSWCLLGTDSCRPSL

The target in a further assay is T3, Ephrin type-A receptor 1 (Homo sapiens, UniProt P21709).
T3 sequence (P21709 whole entry): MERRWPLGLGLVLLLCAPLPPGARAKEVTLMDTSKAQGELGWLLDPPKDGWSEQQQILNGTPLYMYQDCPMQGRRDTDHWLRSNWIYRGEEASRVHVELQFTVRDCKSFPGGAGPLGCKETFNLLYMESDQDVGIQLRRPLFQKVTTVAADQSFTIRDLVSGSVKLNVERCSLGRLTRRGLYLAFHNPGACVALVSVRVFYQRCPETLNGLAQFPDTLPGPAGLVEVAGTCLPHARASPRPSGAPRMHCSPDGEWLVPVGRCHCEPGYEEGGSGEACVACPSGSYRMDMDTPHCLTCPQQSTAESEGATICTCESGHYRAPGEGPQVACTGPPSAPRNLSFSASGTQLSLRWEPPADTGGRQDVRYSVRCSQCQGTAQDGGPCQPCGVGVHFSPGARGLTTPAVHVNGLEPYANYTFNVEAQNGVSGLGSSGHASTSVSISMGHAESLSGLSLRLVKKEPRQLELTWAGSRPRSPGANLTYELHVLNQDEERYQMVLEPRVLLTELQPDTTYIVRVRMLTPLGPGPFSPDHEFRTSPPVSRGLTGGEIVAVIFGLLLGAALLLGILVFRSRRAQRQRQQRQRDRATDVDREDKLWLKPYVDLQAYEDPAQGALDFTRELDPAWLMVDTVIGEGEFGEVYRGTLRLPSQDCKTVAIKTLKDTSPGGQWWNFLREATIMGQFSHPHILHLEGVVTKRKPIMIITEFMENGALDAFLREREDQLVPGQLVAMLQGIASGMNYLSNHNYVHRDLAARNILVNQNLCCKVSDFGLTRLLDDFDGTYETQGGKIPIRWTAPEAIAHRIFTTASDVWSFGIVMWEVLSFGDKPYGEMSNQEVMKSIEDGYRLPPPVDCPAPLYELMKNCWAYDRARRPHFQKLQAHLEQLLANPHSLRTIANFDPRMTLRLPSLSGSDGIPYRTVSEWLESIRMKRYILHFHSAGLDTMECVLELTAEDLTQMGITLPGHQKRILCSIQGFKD

In assay [7] the target is Non-receptor tyrosine-protein kinase TYK2 (Homo sapiens, UniProt P29597).
Assay [8] deals with Glycogen synthase kinase-3 alpha (Homo sapiens, UniProt P49840).
Assay [9] deals with Serine/threonine-protein kinase Nek6 (Homo sapiens, UniProt Q9HC98).
The target in assay [10] is Mitogen-activated protein kinase 6 (Homo sapiens, UniProt Q16659).
Chain of Mitogen-activated protein kinase 6 (Q16659 whole entry): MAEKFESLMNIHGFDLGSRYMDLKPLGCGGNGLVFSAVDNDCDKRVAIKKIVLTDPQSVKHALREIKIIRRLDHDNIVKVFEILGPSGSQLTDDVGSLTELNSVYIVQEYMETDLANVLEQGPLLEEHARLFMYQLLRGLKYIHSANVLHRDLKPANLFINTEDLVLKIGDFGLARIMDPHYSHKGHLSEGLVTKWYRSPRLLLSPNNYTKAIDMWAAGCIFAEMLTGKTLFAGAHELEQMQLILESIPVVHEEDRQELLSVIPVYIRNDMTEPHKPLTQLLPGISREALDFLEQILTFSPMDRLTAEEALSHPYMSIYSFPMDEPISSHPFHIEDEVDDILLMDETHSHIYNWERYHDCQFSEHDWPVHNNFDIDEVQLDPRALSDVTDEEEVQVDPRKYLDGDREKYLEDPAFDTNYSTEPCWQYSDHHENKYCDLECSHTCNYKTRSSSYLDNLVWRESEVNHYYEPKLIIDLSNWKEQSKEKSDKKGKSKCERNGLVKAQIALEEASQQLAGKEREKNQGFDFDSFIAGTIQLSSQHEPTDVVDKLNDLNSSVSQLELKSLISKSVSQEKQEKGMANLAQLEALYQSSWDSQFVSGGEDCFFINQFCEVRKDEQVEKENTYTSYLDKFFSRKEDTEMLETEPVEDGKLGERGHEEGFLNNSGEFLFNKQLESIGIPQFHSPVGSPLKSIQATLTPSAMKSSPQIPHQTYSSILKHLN

Chain of Insulin receptor (P06213 28-758 limits assumed): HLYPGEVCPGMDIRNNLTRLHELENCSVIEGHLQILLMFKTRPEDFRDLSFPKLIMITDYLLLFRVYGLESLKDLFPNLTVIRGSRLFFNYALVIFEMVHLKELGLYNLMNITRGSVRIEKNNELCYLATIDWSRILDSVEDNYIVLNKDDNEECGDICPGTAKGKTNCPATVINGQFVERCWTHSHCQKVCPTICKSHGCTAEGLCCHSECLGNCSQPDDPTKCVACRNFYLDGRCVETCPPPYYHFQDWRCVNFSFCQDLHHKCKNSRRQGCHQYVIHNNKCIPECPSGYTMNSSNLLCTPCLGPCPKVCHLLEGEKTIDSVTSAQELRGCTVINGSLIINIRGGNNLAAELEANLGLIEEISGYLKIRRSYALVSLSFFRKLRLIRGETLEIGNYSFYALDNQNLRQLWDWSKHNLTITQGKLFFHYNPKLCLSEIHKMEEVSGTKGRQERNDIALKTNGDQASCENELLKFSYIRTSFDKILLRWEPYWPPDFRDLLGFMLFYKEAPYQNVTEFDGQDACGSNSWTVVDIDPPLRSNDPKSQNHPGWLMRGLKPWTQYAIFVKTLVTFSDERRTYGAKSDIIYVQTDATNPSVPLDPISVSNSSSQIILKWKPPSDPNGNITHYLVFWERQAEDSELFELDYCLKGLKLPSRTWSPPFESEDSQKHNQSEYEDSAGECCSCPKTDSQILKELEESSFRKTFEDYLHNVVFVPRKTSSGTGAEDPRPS
Chain of Insulin receptor (P06213 763-1382 limits assumed): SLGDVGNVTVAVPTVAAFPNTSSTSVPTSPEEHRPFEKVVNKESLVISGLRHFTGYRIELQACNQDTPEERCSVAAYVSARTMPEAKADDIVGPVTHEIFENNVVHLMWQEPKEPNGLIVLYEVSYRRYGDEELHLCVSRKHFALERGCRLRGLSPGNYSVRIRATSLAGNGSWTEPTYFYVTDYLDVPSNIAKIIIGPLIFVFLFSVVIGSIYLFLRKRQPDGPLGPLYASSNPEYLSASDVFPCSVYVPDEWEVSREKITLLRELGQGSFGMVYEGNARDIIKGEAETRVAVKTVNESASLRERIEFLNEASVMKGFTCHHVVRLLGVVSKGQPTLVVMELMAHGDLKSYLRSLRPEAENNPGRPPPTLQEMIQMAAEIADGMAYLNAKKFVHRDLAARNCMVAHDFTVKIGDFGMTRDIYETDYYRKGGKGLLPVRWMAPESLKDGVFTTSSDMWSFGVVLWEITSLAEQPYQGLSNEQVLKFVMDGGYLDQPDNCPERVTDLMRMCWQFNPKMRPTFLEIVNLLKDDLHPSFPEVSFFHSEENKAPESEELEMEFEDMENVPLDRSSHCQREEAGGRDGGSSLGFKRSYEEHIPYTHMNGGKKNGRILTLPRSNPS
Chain of Serine/threonine-protein kinase 38-like (Q9Y2H1 whole entry): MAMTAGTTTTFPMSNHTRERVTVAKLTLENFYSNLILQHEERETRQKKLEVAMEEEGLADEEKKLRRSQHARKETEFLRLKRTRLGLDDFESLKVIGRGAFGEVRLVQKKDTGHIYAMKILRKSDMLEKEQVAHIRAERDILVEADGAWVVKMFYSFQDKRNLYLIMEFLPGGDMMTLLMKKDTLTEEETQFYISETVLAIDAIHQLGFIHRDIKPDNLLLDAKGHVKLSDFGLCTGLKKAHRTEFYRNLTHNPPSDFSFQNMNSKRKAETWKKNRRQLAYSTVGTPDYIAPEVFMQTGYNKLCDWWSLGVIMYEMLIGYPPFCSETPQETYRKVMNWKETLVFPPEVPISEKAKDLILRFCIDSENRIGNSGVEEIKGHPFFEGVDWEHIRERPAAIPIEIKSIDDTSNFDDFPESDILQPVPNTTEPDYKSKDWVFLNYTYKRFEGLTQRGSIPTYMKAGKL
Chain of Serine/threonine-protein kinase Nek6 (Q9HC98 whole entry): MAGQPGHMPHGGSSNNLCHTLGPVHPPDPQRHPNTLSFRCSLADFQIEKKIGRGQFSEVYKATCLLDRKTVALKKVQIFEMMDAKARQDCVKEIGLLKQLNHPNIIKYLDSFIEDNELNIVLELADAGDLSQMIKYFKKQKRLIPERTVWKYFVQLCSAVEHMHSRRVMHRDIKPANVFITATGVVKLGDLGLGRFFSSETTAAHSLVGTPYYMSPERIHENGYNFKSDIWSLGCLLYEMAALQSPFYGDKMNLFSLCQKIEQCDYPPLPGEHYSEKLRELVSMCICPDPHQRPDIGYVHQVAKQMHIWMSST
Chain of Vascular endothelial growth factor receptor 3 (P35916 whole entry): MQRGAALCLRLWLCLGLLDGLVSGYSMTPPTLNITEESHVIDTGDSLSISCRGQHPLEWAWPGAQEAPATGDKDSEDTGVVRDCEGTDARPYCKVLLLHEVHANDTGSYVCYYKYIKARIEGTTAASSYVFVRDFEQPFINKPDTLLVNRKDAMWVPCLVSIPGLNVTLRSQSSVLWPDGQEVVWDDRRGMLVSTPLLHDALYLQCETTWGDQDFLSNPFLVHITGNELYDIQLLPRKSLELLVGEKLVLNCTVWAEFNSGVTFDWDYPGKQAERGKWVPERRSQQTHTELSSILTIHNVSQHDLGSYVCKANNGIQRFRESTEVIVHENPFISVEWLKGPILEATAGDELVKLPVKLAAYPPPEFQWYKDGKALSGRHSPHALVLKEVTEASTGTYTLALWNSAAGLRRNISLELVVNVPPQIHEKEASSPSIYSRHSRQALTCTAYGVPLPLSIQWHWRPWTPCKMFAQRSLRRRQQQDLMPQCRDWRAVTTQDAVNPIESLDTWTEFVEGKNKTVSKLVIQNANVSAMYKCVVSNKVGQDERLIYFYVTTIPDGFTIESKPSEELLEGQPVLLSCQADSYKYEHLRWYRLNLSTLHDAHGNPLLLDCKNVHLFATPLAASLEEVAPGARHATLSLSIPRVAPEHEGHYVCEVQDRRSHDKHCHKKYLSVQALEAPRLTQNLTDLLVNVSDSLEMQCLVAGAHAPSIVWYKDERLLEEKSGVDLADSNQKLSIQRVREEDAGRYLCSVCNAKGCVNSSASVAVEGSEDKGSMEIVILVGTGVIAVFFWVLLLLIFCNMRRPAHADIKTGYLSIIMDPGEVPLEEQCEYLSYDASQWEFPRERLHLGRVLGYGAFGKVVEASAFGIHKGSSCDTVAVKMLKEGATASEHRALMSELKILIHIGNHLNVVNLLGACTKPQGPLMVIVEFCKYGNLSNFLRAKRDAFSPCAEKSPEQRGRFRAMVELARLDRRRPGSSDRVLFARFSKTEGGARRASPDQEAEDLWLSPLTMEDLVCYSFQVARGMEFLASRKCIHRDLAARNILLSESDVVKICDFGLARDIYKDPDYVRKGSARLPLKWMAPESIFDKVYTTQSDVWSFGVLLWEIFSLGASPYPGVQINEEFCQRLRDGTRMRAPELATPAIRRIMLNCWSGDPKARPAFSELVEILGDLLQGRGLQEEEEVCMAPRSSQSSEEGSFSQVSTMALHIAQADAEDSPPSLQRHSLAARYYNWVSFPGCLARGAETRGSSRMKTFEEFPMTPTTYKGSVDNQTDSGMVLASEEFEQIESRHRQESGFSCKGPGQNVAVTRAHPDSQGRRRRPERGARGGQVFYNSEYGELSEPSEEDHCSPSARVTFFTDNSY
Chain of Glycogen synthase kinase-3 alpha (P49840 whole entry): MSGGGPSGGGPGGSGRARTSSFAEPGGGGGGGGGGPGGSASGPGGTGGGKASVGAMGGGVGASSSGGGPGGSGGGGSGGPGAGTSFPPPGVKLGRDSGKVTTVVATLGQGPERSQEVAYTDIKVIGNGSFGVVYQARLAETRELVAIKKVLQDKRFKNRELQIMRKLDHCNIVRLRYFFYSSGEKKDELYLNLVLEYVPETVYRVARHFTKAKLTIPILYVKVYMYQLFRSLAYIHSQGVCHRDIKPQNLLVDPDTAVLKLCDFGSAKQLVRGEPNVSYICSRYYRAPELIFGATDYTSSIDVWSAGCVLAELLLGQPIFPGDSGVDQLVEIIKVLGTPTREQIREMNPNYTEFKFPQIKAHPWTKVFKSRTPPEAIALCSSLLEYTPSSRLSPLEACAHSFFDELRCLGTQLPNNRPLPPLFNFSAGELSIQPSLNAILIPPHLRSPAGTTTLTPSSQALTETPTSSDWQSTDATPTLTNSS

As to `Oc1ccc(-c2nc(-c3ccncc3)c(-c3ccc(F)cc3)[nH]2)cc1` [SB-202190], the dissociation constant Kd (on Insulin receptor; in [1]; in assay [2]; in [3]; in [4]; in [5]) was over 10 µM in each case. Moreover, the Kd (in assay [6]; on Ephrin type-A receptor 1; in [7]; in assay [8]; in [9]; in assay [10]) was over 10 µM each time.
As to `CCN1CCN(Cc2ccc(NC(=O)Nc3ccc(Oc4cc(NC)ncn4)cc3)cc2C(F)(F)F)CC1` [AST-487], the equilibrium dissociation constant (Kd) (on Insulin receptor; in assay [1]; in [3]; in assay [5]; in assay [6]; on Ephrin type-A receptor 1) was over 10 µM each time. The figures for the Kd in assay [7], in [8] and in [9] were 2.1 µM, over 10 µM and over 10 µM, respectively.
`COCC(=O)NC/C=C/c1ccc2ncnc(Nc3ccc(Oc4ccc(C)nc4)c(C)c3)c2c1` [CP-724714]: the Kd (on Insulin receptor; in [1]; in [2]; in [3]; in assay [4]; in assay [5]) was over 10 µM in each case. Moreover, the dissociation constant Kd (in assay [6]; on Ephrin type-A receptor 1; in assay [7]; in assay [8]; in assay [9]; in [10]) was over 10 µM in each case.
`Nc1nc(Nc2ccc(S(N)(=O)=O)cc2)nn1C(=O)c1c(F)cccc1F` [JNJ-7706621]: the dissociation constant (Kd) (as a rule, a measure of binding affinity in units of concentration) is over 10 µM on Insulin receptor; 0.31 µM in assay [1]; 1.5 µM in assay [3]; over 10 µM in assay [4]; over 10 µM in assay [5]; over 10 µM in assay [6]. Moreover, the Kd is over 10 µM at Ephrin type-A receptor 1, 0.032 µM in assay [7], 0.16 µM in assay [8] and over 10 µM in [9].
As for `NC(=O)c1ccc(-c2nc(-c3ccc4c(c3)OCO4)c(-c3ccccn3)[nH]2)cc1` [SB-431542], the Kd (at Insulin receptor; in assay [1]; in assay [2]; in [3]; in assay [4]; in [5]) was over 10 µM throughout. Moreover, the Kd (in assay [6]; at Ephrin type-A receptor 1; in assay [7]; in assay [8]; in [9]; in assay [10]) was over 10 µM throughout.
On to `CCOc1cc2ncc(C#N)c(Nc3ccc(F)c(Cl)c3)c2cc1NC(=O)/C=C/CN(C)C` [PELITINIB], for which the Kd at Insulin receptor was over 10 µM; in assay [1] it was 5.6 µM; in [2], over 10 µM; in assay [3], over 10 µM; in [4], over 10 µM; in assay [5], over 10 µM. Besides, the Kd (in assay [6]; on Ephrin type-A receptor 1; in assay [7]; in [8]; in assay [9]; in assay [10]) was over 10 µM throughout.
